The results in this text go back to BindingDB's records for doi:10.1021/jm9903242 (Agouron Pharmaceuticals, 2000).

The assay in a line: Antiviral activity using H1HeLa cells (ATCC) infected with HRV-14.
In the case of `NC(=O)c1ccc2c(c1)C=CC2=O` [1-Oxo-1H-indene-5-carboxylic acid amide], the EC50 (in general, the concentration at which the effect is half-maximal) was above 20 µM.
With `CCOC(=O)/C=C/c1cc(O)cc(C(N)=O)c1` [3-(3-Carbamoyl-5-hydroxy-phenyl)-acrylic acid ethyl ester], the EC50 is above 100 µM.
For `CCOC(=O)/C=C/c1cc(CO)cc(C(N)=O)c1` [3-(3-Carbamoyl-5-hydroxymethyl-phenyl)-acrylic acid ethyl ester], the EC50 was above 100 µM.
The figure for `CCOC(=O)/C(C#N)=C/c1cccc(C(N)=O)c1` [3-(3-Carbamoyl-phenyl)-2-cyano-acrylic acid ethyl ester] is above 100 µM; for `NC(=O)c1cccc(/C=C/C(=O)OCCO)c1` [3-(3-Carbamoyl-phenyl)-acrylic acid 2-hydroxy-ethyl ester] it is 20 µM.
The result for `NC(=O)c1cccc(/C=C/C(=O)OCc2ccccc2)c1` [3-(3-Carbamoyl-phenyl)-acrylic acid benzyl ester] reads 5.6 µM; that for `CCOC(=O)/C=C/c1cccc(C(N)=O)c1` [3-(3-Carbamoyl-phenyl)-acrylic acid ethyl ester], 15.9 µM; that for `COC(=O)/C=C/c1cccc(C(N)=O)c1` [3-(3-Carbamoyl-phenyl)-acrylic acid methyl ester], 150 µM.
The figure for `NC(=O)c1cccc(/C=C/C(=O)OCCc2ccccc2)c1` [3-(3-Carbamoyl-phenyl)-acrylic acid phenethyl ester] is 100 µM; for `NC(=O)c1cccc(/C=C/C(=O)c2ccco2)c1` [3-(3-Furan-2-yl-3-oxo-propenyl)-benzamide] it is above 71 µM.
Compound `NC(=O)c1cccc(/C=C/C(=O)c2ccccc2)c1` [3-(3-Oxo-3-phenyl-propenyl)-benzamide] showed an EC50 of 28 µM.
With `NC(=O)c1cccc(/C=C/C(=O)c2ccccn2)c1` [3-(3-Oxo-3-pyridin-2-yl-propenyl)-benzamide], a half-maximal response (EC50) required 50 µM.
Compound `CC(=O)C=Cc1cccc(C(N)=O)c1` [3-(3-Oxo-but-1-enyl)-benzamide] displayed a concentration for a half-maximal effect (EC50) of 32 µM.
The result for `CCOC(=O)/C=C/c1ccc(OCc2ccccc2)c(C(N)=O)c1` [3-(4-Benzyloxy-3-carbamoyl-phenyl)-acrylic acid ethyl ester] reads above 320 µM; that for `CCOC(=O)/C=C/c1cc(C(N)=O)ccc1C` [3-(5-Carbamoyl-2-methyl-phenyl)-acrylic acid ethyl ester], above 100 µM; that for `CN(C)c1ccc(C(=O)/C=C/c2cccc(C(N)=O)c2)cc1` [3-[3-(4-Dimethylamino-phenyl)-3-oxo-propenyl]-benzamide], above 15 µM.
The result for `COc1ccc(C(=O)/C=C/c2cccc(C(N)=O)c2)cc1` [3-[3-(4-Methoxy-phenyl)-3-oxo-propenyl]-benzamide] reads above 22 µM.
The figure for `CCOC(=O)/C=C/c1cc(CN2CCN(c3ccccn3)CC2)cc(C(N)=O)c1` [3-[3-Carbamoyl-5-(4-pyridin-2-yl-piperazin-1-ylmethyl)-phenyl]-acrylic acid ethyl ester] is 2.5 µM.
Turning to `CCOC(=O)/C=C/c1cc(CN2CCN(c3ncccn3)CC2)cc(C(N)=O)c1` [3-[3-Carbamoyl-5-(4-pyrimidin-2-yl-piperazin-1-ylmethyl)-phenyl]-acrylic acid ethyl ester], the concentration giving a half-maximal response (EC50) was determined as 1 µM.
The result for `CCOC(=O)/C=C/c1cc(CSc2nnc(-c3ccccn3)o2)cc(C(N)=O)c1` [3-[3-Carbamoyl-5-(5-pyridin-2-yl-[1,3,4]oxadiazol-2-ylsulfanylmethyl)-phenyl]-acrylic acid ethyl ester] reads 5.6 µM.
The result for `CCOC(=O)/C=C/c1cc(CN2CCN(c3ccccc3C#N)CC2)cc(C(N)=O)c1` [3-{3-Carbamoyl-5-[4-(2-cyano-phenyl)-piperazin-1-ylmethyl]-phenyl}-acrylic acid ethyl ester] reads 0.6 µM; that for `CCOC(=O)/C=C/c1cc(CN(CC)Cc2ccncc2)cc(C(N)=O)c1` [3-{3-Carbamoyl-5-[(ethyl-pyridin-4-ylmethyl-amino)-methyl]-phenyl}-acrylic acid ethyl ester], 5.8 µM.
The figure for `CCOC(=O)/C=C/c1cc(CN2CCN(C(=O)OCC)CC2)cc(C(N)=O)c1` [4-[3-Carbamoyl-5-(2-ethoxycarbonyl-vinyl)-benzyl]-piperazine-1-carboxylic acid ethyl ester] is 1.8 µM.
